Among the data in patent US20040176446A1, “Substituted amino dicarboxylic acid derivatives” (priority 2001, published 2004) are melting point values, retold here.

Molecules are shown by their SMILES.

In the case of `O=C(O)CCCCN(CCc1cc(-c2ccc(F)cc2F)ccc1OCc1ccc(C2CCCCC2)cc1)Cc1ccc(C(=O)O)cc1` [Example 1, 4-{[(4-Carboxybutyl)(2-{4-[(4-cyclohexylbenzyl)oxy]-2′,4′-difluoro-1,1′-biphenyl-3-yl}ethyl)amino]methyl}benzoic acid], the melting point (commonly the temperature, or range, at which the solid turns liquid) was above 240 °C.
The value for `O=C(O)CCCCN(CCc1cc(-c2ccc(F)cc2F)ccc1OCc1ccc(-c2ccc(C(F)(F)F)cc2)cc1)Cc1ccc(C(=O)O)cc1` [Example 2, 4-({(4-Carboxybutyl)[2-(2′,4′-difluoro-4-{[4′-(trifluoromethyl)-1,1′-biphenyl-4-yl]methoxy}-1,1′-biphenyl-3-yl)ethyl]amino}methyl)benzoic acid] was above 240 °C.
